Columns and labels:
[1] = tested on: Dithranol induced inflammation; test: Antiinflammatory activity on dithranol induced cutaneous inflammation; type: in vivo, Guinea pigs; conditions: 48 hours
Description: A specific cutaneous inflammatory reaction, caused by different phlogogenic factors both of exogenous and endogenous origin, including the formation of free radicals, lipoperoxides, prostaglandins and cytokines, is that induced by intradermal injection of dithranol, as described by Mustakallio (Mustakallio K., DERMATOVENER, 54, 125, 1979).
Dithranol is intradermally injected at the dose of 20 mcg on the back of shaved Guinea pigs.
On the opposite side of the back, before the injection of the same amount of dithranol, HA alone or acetyl-L-carnitine (AC) alone, or HA and AC together or the HA and AC complex, are spread.
A mixture of lanolin and ethylene glycol monostearate was used to spread these compounds.

ornithinedecarboxylase = test: Increase of ornithinedecarboxylase activity induced by theleocidin in skin; type: in vivo, mice; conditions: epidermis five hours after
Description: These skin alterations increase the ornithinedecarboxylase enzyme, and this increase is related to the severity of the induced cutaneous damage.
In these experiences, theleocidin is injected on mice back shaved skin at a dosage of 5 mcg/mouse dissolved in 0.2 cc of solution.
HA and AC either administered alone, or together or in the form of a complex according to the invention, are spread five minute's before theleocidin on the backs of the animals. Ornithinedecarboxylase is dosed on the homogenised epidermis of the animals five hours after the theleocidin injection, according to the method by O'Brien and Nakadate (O'Brien T. G., Cancer Res., 35, 1662, 1975—Nakadate T. Cancer Res., 42, 2841, 1982). Protein concentration of an epidermis extract is evaluated following the method described by Lowry (Lowry O. H., J. Biol. Chem., 193, 265, […]).

[2] = tested on: barrier function of corneal epithelium; test: Clinical trial in dry eye syndrome: barrier function of corneal epithelium (fluorescein test, fluorophotometry); type: in vivo, human; conditions: 27 dry eye patients, collyrium for 4 weeks; improvement after 2 weeks in lower cornea areas, 4 weeks in central ones
Description: Dryness of the conjunctiva, isolated or in association with other ocular or extra-ocular disease, is recognizedly capable of inducing local damage on corneal epithelium which can, inter alia, lose its barrier function. […] According to the protocol, each patient received for 4 weeks a medication (hyaluronic acid) in the form of collyrium in one eye and a different treatment (hyaluronic acid/carnitine) in the other eye, so that each patient also acted as the control. Subjective evaluation and clinical examinations, associated with a fluorescein test, were carried out 2 weeks after the beginning of the treatment as well as at its end (4 weeks).

[3] = tested on: trophic ulcers of lower limbs; test: Clinical trial in trophic ulcers of lower limbs, topical treatment; type: in vivo, human; conditions: for number of patients with VERY GOOD result: 30 patients; for overall results compared with the combination (in words): same treatment time
Description: The used protocol is the following one:
1) Topical administrations of a combination of hyaluronic acid and carnitine (1:1 by weight), or of carnitine alone or of hyaluronic acid alone, previous humidification of the lesion with saline for a time of 10 minutes. In the first treatments, it is possible to use hyaluronic acid at a higher concentration than carnitine, to promote ulcer cleansing. In the following treatments, such concentrations of the two molecules have been used as to better make use of the role of carnitine in normalizing tissue trophism. Treatment usually started during hospitalization and was subsequently continued at the nalgesic therapy clinic.
Patients enrolled in this trial came from Medicine and Surgery Departments, where they unsuccessfully received various medical treatments (mesoglycan, Connectivine, mucopolysaccharides).
18 females and 12 males were treated, of age from 62 to 80 years, with trophic ulcers of various size and at different sites, anyhow on limbs or feet.
Results were scored as follows: VERY GOOD, when the ulcer healed completely; GOOD, when an at least 50% reduction of the lesion was attained; NULL, when no significant changes of the lesion occurred after 30 day-treatment.

cartilage explants [4] = test: PG and HA synthesis in cartilage explants (pulse studies, 3H-glucosamine); type: cell-based, human
Description: (§1) Thirty-five subjects were included in the study. Exclusion criteria were septicaemia, connective tissue disordes, rheumatoid arthritis, crystal deposition diseases, known hereditary or congenital defects, immobilization for several weeks as well as treatment with corticosteroids and cytotoxic drugs.
(§2) Tissue specimens obtained from each donor were cut into pieces of 3-6 mg in Dulbecco's modified Eagle's medium (DMEM) supplemented with penicillin (5.000 i.u. ml^−1) The tissue was washed 3 times with this culture medium. Cartilage pieces were taken at random, weighed and distributed into the different wells of multiwell culture plates (typically between 30 and 60 mg tissue/well). Extra pieces were not cultured but stored at −20° C. in order to assess the initial proteoglycans (PG) and HA contents of the cartilage. Culture medium supplemented with 20% (v/v) foetal calf serum (culture medium A) was then added to each well and the culture plates were placed in a 90%: 10% (v/v) air: CO2 humidified incubator for 48 h at 37° C.
(§3) For each experiment the cartilage from one individual was used and tissue cultures were conducted in triplicate: that is, for the control culture as well as for each HA, Acetyl-carnitine (ALC) or HA+ALC, 3 cartilage explants were cultured separately. Reported values are the mean of the triplicate cultures.
After 2 day of culture, the culture medium was aspirated and the explants were washed 3 times with 1 ml of DMEM. Explants were resuspended in 5% FCS culture medium (1 ml 50 mg^−1 tissue) supplemented with ^3H-glucosamine (50 μCi ml^−1) (culture medium B). To each well, a solution of HA, Acetyl-carnitine (ALC) or HA+ALC, was added ([…] in culture medium) to achieve the final concentration of 100 μg of HA and 100 μg of ALC. Control culture received medium alone. Culture wells were then incubated for 12 h. […]
(§4) The Econo-Pak Q column (5 ml) was pre-equilibrated in buffer A at a flow rate of 2 ml min^−1. […] Fractions of 2 ml were collected and assayed for radioactivity. […]

cartilage explants [5] = test: Net loss of labelled PG and HA from cartilage explants (chase studies); type: cell-based, human
Description: as §1, §2, §3
After one day of culture in medium A, the cartilage pieces were aspirated free of medium, washed 3 times with 1 ml of DMEM, resuspended in culture medium B (1 ml 50 mg^−1 tissue) and cultured for 12 h. After pulse labelling, the cartilage pieces were washed with DMEM and resuspended in culture medium A. Medium alone or the appropriate molecules (HA, ALC or HA+ALC) dissolved in medium were added to each well (10 μl ml^−1) as stated above and a non-radioactive chase period was conducted for 24 h. […]
as §4

[6] = 100 μg of HA and/or 100 μg of ALC, 12 h pulse

## hyaluronic acid [HA]
[1]; 10 mg spread on skin before dithranol 20 mcg intradermal
  % inhibition of phlogistic area compared with controls: 39 ± 1.6%
[1]; 50 mg spread on skin before dithranol 20 mcg intradermal
  % inhibition of phlogistic area compared with controls: 38 ± 2.9%
[1]; dose not stated
  inhibition of the inflammation area induced by dithranol: about 30%
ornithinedecarboxylase; 10 mg spread five minutes before theleocidin 5 mcg/mouse
  ornithinedecarboxylase activity: 21 ± 2.8 nmol of CO2/60 min./mg protein
ornithinedecarboxylase; 50 mg spread five minutes before theleocidin 5 mcg/mouse
  ornithinedecarboxylase activity: 31 ± 4.1 nmol of CO2/60 min./mg protein
[2]
  symptoms and barrier function of corneal epithelium (in words): did not provide significant advantages
[3]; 30 day-treatment
  patients with GOOD result (at least 50% reduction of the lesion): 16%
  number of patients with VERY GOOD result: in no patients
[3]
  overall results compared with the combination (in words): remarkably poorer
Cartilage explants [4]; [6]
  HA synthesis d.p.m. [^3H] HA × 10^3/h/mg OH/proline: 4.5 ± 0.93 d.p.m. [^3H] HA × 10^3/h/mg OH/proline
  PG synthesis d.p.m. [^3H] PG × 10^3/h/mg OH/proline: 39.2 ± 9.2 d.p.m. [^3H] PG × 10^3/h/mg OH/proline
Cartilage explants [4]; text summary of Table 4
  PG and HA synthesis (in words): slight increase
Cartilage explants [5]; 24 h chase, Table 5
  net loss of labelled PGs and HA (in words): reduced only the net loss of labelled HA
Cartilage explants [5]; 24 h non-radioactive chase
  % of radiolabelled molecules recovered in the media, [^3H] HA Loss/24 h: 28.0 ± 6.09%
  % of radiolabelled molecules recovered in the media, [^3H] PG Loss/24 h: 20.1 ± 7.5%

## C[N+](C)(C)C[C@H](O)CC(=O)[O-] [L-Carnitine, L-carnitine]
[3]; 30 day-treatment
  number of patients with VERY GOOD result: in no patients
[3]
  overall results compared with the combination (in words): remarkably poorer

— patent US6585987B1, “Complexes of hyaluronic acid/carnitines and pharmaceutical and cosmetic compositions” (Continental Projects Limited, priority 1998, dated 2003)
